Assay results taken from patent US20200318079A1, “ACTIVITY-DEPENDENT EXPRESSION CONSTRUCTS AND METHODS OF USING THE SAME” (The Board of Trustees of the Leland Stanford Junior …, priority 2016, published 2020).

Tested on: c-Fos regulatory region
Experiment: Activity-dependent expression of a reporter driven by c-Fos regulatory regions
Settings: comparison of three regulatory regions
From the text: The activity-dependent expression of a reporter construct driven by a regulatory region containing 761 bp of 5′ mouse c-Fos non-coding sequence, mouse c-Fos exon 1 and mouse c-Fos intron 1, as depicted in FIG. 9 (SEQ ID NO:7) was compared to: (1) the activity-dependent expression of the same reporter driven by the c-Fos 5′-non-coding sequence depicted in FIG. 10 (SEQ ID NO:1) and (2) the activity-dependent expression of the same reporter driven by the entire c-Fos gene followed by an IRES as depicted in FIG. 11 (SEQ ID NO:29).

With “SEQ ID NO:7: reporter driven by regulatory region containing 761 bp of 5′ mouse c-Fos non-coding sequence, mouse c-Fos exon 1 and intron 1” the “activity-dependent expression of the reporter” value was “best for high, non-leaky expression”.
